Experiments:
[1] = molecular target: T1, HiBit-BRM fusion protein (Homo sapiens, UniProt P51531); assay: HiBiT-BRM cell-based degradation assay (Nano-Glo HiBiT Lytic Detection, 24 h); conditions: HeLa cells expressing HiBiT-BRM; for DC50: read-out: BRM HiBit Degradation IC50; for BRM HiBit Degradation Maximum measured: top dose 30 μM
T1 construct: expressed in transfected cells
In short: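 Luminescence from reconstituted NanoBiT luciferase in lysed HeLa HiBiT-BRM cells served as the measure of remaining BRM after 24 h treatment. Compounds were tested from 30 μM final downward in 3-fold steps. DMSO and 2 μM of a standard BRM/BRG1 degrader defined the scale limits.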

[2] = molecular target: T2, HiBit-BRG1 fusion protein (Homo sapiens, UniProt P51532); assay: HiBiT-BRG1 cell-based degradation assay (Nano-Glo HiBiT Lytic Detection, 24 h); conditions: HeLa cells expressing HiBit-BRG1 and LgBit; for DC50: read-out: BRG1 HiBit Degradation IC50; for Dmax: HeLa, top dose 30 μM, read-out: BRG1 HiBit Degradation Maximum measured
T2 construct: expressed in transfected cells
In short: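 Stable HeLa line expressing HiBiT-BRG1 and LgBiT, seeded at 5000 cells/well; luminescence read after lytic Nano-Glo HiBiT reagent and 10 min shaking at RT. % degradation normalised between DMSO (high control) and 2 μM reference BRM/BRG1 degrader (low control).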

T1 sequence (P51531 whole entry, the tested form may be a part): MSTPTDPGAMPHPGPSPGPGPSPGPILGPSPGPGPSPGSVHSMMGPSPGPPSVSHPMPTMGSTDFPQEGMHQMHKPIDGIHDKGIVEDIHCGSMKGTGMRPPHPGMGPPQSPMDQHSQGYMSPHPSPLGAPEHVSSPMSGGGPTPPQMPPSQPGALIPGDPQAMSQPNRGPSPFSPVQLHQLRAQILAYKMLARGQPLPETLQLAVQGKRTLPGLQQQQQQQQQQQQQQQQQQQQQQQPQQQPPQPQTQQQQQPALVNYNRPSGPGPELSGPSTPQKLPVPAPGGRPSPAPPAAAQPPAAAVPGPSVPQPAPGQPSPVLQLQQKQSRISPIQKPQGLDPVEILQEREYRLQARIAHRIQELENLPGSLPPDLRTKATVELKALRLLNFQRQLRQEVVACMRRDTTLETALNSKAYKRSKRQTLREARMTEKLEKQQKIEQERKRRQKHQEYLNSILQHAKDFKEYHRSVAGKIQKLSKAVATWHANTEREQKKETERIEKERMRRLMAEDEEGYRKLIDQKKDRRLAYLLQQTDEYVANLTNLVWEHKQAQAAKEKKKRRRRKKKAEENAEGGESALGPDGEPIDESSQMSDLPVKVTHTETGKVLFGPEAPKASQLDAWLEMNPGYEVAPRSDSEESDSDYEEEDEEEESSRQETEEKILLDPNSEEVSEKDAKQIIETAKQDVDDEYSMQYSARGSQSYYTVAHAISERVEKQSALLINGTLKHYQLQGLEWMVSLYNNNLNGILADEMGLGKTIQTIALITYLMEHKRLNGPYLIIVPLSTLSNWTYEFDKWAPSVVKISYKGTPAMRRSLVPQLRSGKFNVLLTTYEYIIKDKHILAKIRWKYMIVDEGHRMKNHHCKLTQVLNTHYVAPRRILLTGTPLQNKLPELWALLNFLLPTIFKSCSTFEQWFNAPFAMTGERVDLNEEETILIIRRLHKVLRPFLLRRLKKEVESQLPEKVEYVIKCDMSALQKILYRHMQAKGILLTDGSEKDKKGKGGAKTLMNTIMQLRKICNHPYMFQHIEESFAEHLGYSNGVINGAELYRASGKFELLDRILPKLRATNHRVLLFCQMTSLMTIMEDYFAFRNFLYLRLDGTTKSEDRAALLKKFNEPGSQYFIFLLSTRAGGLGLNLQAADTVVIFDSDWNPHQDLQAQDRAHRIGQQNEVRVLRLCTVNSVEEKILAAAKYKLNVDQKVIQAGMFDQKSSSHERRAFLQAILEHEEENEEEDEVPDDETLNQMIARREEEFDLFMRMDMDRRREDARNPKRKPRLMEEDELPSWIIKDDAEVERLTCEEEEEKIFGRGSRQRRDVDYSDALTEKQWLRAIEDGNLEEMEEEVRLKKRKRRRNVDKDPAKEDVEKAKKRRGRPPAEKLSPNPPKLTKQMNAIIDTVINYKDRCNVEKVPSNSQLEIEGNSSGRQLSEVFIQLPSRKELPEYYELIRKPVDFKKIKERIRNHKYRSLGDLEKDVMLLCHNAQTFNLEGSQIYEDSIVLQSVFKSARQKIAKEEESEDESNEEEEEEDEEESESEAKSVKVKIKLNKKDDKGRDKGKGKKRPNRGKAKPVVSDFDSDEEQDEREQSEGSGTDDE
T2 sequence (P51532 whole entry, the tested form may be a part): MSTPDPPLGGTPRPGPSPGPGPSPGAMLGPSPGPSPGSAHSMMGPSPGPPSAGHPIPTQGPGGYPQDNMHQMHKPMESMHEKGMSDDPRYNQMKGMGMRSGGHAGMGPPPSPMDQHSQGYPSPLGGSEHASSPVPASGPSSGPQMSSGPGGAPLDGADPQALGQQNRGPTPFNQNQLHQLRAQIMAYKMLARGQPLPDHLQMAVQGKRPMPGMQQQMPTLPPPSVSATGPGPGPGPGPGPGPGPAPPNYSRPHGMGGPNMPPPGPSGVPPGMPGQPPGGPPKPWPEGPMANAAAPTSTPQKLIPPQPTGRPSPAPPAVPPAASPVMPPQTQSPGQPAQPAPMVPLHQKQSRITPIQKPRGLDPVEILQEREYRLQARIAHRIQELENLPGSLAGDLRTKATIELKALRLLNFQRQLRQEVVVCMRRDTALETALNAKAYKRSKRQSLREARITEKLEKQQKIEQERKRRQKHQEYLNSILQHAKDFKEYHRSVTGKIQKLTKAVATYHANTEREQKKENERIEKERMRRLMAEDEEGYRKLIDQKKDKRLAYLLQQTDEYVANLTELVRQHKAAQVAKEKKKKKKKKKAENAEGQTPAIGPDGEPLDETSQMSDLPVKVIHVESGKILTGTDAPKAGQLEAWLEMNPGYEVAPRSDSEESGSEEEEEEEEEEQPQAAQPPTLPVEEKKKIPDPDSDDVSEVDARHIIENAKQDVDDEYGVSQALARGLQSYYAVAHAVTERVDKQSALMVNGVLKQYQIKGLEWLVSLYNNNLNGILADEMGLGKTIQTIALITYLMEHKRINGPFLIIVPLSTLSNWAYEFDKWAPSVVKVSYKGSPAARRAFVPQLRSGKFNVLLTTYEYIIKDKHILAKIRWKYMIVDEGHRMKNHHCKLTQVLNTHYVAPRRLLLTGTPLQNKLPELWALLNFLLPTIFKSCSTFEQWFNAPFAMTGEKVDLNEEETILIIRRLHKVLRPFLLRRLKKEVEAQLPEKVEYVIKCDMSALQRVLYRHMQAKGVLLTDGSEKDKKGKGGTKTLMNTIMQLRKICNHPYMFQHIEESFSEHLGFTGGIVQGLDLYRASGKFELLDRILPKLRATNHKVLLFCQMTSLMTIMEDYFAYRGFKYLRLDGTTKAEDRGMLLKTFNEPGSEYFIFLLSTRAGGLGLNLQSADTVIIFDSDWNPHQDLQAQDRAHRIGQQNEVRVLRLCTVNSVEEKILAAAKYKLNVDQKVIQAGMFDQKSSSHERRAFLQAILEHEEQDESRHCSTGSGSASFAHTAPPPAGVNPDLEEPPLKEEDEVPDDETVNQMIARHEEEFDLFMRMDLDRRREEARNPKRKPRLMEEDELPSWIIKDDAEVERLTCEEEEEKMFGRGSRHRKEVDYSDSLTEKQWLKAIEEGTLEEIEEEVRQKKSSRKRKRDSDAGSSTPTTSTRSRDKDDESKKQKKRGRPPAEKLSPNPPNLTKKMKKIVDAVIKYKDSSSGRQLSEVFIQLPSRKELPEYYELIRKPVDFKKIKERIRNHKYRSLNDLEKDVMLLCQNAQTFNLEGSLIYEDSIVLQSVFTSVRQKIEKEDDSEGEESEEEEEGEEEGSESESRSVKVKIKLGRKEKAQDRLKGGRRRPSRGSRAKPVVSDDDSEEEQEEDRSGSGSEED

Row | DC50 [1] | BRM HiBit Degradation Maximum measured [1] | DC50 [2] | Dmax [2] | Structure (SMILES)
1 | > 10 µM | C (‘C’ = Maximum degradation <50%) | > 10 µM | < 50% | CS(=O)(=O)n1ccc(C(=O)NCC(=O)Nc2nc(-c3cccc(-c4ccn(CC(=O)NCCCCCNc5cccc6c5C(=O)N(C5CCC(=O)NC5=O)C6=O)n4)c3)cs2)c1 (stereo not drawn) [Compound 2, N-[2-[[4-[3-[1-[2-[5-[[2-(2,6-dioxo-3-piperidyl)-1,3-dioxoisoindolin-4-yl]amino]pentylamino]-2-oxo-ethyl]pyrazol-3-yl]phenyl]thiazol-2-yl]amino]-2-oxo-ethyl]-1-methylsulfonylpyrrole-3-carboxamide]
2 | > 10 µM | C (‘C’ = Maximum degradation <50%) | > 10 µM | < 50% | CS(=O)(=O)n1ccc(C(=O)N[C@@H](COCCCC(=O)NCCCCS(=O)(=O)CCCNc2cccc3c2C(=O)N(C2CCC(=O)NC2=O)C3=O)C(=O)Nc2nc(-c3ccccc3)cs2)c1 (stereo partly drawn) [Compound 172]
3 | > 10 µM | C (‘C’ = Maximum degradation <50%) | > 10 µM | < 50% | Cc1c(C(=O)NCC(=O)Nc2nc(-c3cccc(-c4ccnc(N(C)CC(=O)N5CCC(C6CCN(C(=O)COc7cccc8c7C(=O)N(C7CCC(=O)NC7=O)C8=O)CC6)CC5)c4)c3)cs2)cn(S(C)(=O)=O)c1C (stereo not drawn) [Compound 123, N-[2-[[4-[3-[2-[[2-[4-[1-[2-[2-(2,6-dioxo-3-piperidyl)-1,3-dioxo-isoindolin-4-yl]oxyacetyl]-4-piperidyl]-1-piperidyl]-2-oxo-ethyl]-methyl-amino]-4-pyridyl]phenyl]thiazol-2-yl]amino]-2-oxo-ethyl]-4,5-dimethyl-1-methylsulfonyl-pyrrole-3-carboxamide]
4 | > 10 µM | C (‘C’ = Maximum degradation <50%) | > 10 µM | < 50% | CS(=O)(=O)n1ccc(C(=O)N[C@@H](COCCCC(=O)NCCCCCNc2ccc3c(c2)C(=O)N(C2CCC(=O)NC2=O)C3=O)C(=O)Nc2nc(-c3ccccc3)cs2)c1 (stereo partly drawn) [Compound 187, N-(5-[[2-(2,6-dioxopiperidin-3-yl)-1,3-dioxoisoindol-5-yl]amino]pentyl)-4-[(2S)-2-[(1-methanesulfonylpyrrol-3-yl)formamido]-2-[(4-phenyl-1,3-thiazol-2-yl)carbamoyl]ethoxy]butanamide]
5 | 0.1 to 1 µM | A (‘A’ = Maximum degradation >75%) | 0.1 to 1 µM | > 75% | Cc1ncsc1-c1ccc(CNC(=O)[C@@H]2C[C@@H](O)CN2C(=O)[C@@H](NC(=O)COCCOCCNC(=O)C2(c3cc(-c4cccc(-c5csc(NC(=O)CNC(=O)c6ccn(S(C)(=O)=O)c6)n5)c4)ccn3)CC2)C(C)(C)C)cc1 [Compound 108, N-[2-[[4-[3-[2-[1-[2-[2-[2-[[(1S)-1-[(2S,4R)-4-hydroxy-2-[[4-(4-methylthiazol-5-yl)phenyl]methylcarbamoyl]pyrrolidine-1-carbonyl]-2,2-dimethyl-propyl]amino]-2-oxo-ethoxy]ethoxy]ethylcarbamoyl]cyclopropyl]-4-pyridyl]phenyl]thiazol-2-yl]amino]-2-oxo-ethyl]-1-methylsulfonyl-pyrrole-3-carboxamide]
6 | > 10 µM | C (‘C’ = Maximum degradation <50%) | > 10 µM | < 50% | CS(=O)(=O)n1ccc(C(=O)N[C@@H](CCOCCCC(=O)NCCCCCCCCNc2cccc3c2C(=O)N(C2CCC(=O)NC2=O)C3=O)C(=O)Nc2nc(-c3ccccc3)cs2)c1 (stereo partly drawn) [Compound 281, (2S)-4-[3-[(8-[[2-(2,6-dioxopiperidin-3-yl)-1,3-dioxoisoindol-4-yl]amino]octyl)carbamoyl]propoxy]-2-[(1-methanesulfonylpyrrol-3-yl)formamido]-N-(4-phenyl-1,3-thiazol-2-yl)butanamide]
7 | > 10 µM | C (‘C’ = Maximum degradation <50%) | > 10 µM | < 50% | CS(=O)(=O)n1ccc(C(=O)N[C@@H](CCCCNC(=O)C2CCN(CCOc3ccc4c(c3)C(=O)N(C3CCC(=O)NC3=O)C4=O)CC2)C(=O)Nc2nc(-c3ccccc3)cs2)c1 (stereo partly drawn) [Compound 269]
8 | 0.1 to 1 µM | A (‘A’ = Maximum degradation >75%) | 0.1 to 1 µM | > 75% | Cc1ncsc1-c1ccc(CNC(=O)[C@@H]2C[C@@H](O)CN2C(=O)[C@@H](NC(=O)CCOCCOCCC(=O)NCc2cccc(-c3cccc(-c4csc(NC(=O)CNC(=O)c5ccn(S(C)(=O)=O)c5)n4)c3)c2)C(C)(C)C)cc1 [Compound 1, N-(2-((4-(3′-((S)-14-((2S,4R)-4-hydroxy-2-((4-(4-methylthiazol-5-yl)benzyl)carbamoyl)pyrrolidine-1-carbonyl)-15,15-dimethyl-3,12-dioxo-6,9-dioxa-2,13-diazahexadecyl)-[1,1′-biphenyl]-3-yl)thiazol-2-yl)amino)-2-oxoethyl)-1-(methylsulfonyl)-1H-pyrrole-3-carboxamide]
9 | > 10 µM | C (‘C’ = Maximum degradation <50%) | > 10 µM | < 50% | CS(=O)(=O)n1ccc(C(=O)NCC(=O)Nc2nc(-c3cccc(-c4cccc(CNC(=O)CCOCCOCCNc5ccc6c(c5)C(=O)N(C5CCC(=O)NC5=O)C6=O)c4)c3)cs2)c1 (stereo not drawn) [Compound 45, N-(2-((4-(3′-((3-(2-(2-((2-(2,6-dioxopiperidin-3-yl)-1,3-dioxoisoindolin-5-yl)amino)ethoxy)ethoxy)propanamido)-methyl)-[1,1′-biphenyl]-3-yl)thiazol-2-yl)amino)-2-oxoethyl)-1-(methylsulfonyl)-1H-pyrrole-3-carboxamide]
10 | > 10 µM | C (‘C’ = Maximum degradation <50%) | > 10 µM | < 50% | CS(=O)(=O)n1ccc(C(=O)N[C@@H](CCCCNC(=O)CCCCOc2cccc3c2C(=O)N(C2CCC(=O)NC2=O)C3=O)C(=O)Nc2nc(-c3ccccc3)cs2)c1 (stereo partly drawn) [Compound 295, (2S)-6-(5-[[2-(2,6-dioxopiperidin-3-yl)-1,3-dioxoisoindol-4-yl]oxy]pentanemido)-2-[(1-methanesulfonylpyrrol-3-yl)formamido]-N-(4-phenyl-1,3-thiazol-2-yl)hexanamide]
11 | < 0.1 µM | A (‘A’ = Maximum degradation >75%) | < 0.1 µM | > 75% | CS(=O)(=O)n1ccc(C(=O)NCC(=O)Nc2nc(-c3cccc(-c4ccnc(C5(C(=O)NCCCCNc6ccc7c(c6)C(=O)N(C6CCC(=O)NC6=O)C7=O)CC5)c4)c3)cs2)c1 (stereo not drawn) [Compound 105, N-[2-[[4-[3-[2-[1-[4-[[2-(2,6-dioxo-3-piperidyl)-1,3-dioxo-isoindolin-5-yl]amino]butylcarbamoyl]cyclopropyl]-4-pyridyl]phenyl]thiazol-2-yl]amino]-2-oxo-ethyl]-1-methylsulfonyl-pyrrole-3-carboxamide]
12 | > 10 µM | C (‘C’ = Maximum degradation <50%) | > 10 µM | < 50% | CS(=O)(=O)n1ccc(C(=O)N[C@@H](COCc2ccc(C(=O)N3CCN(CCOc4ccc5c(c4)C(=O)N(C4CCC(=O)NC4=O)C5=O)CC3)cc2)C(=O)Nc2nc(-c3ccccc3)cs2)c1 (stereo partly drawn) [Compound 191, (2S)-3-([4-[4-(2-[[2-(2,6-dioxopiperidin-3-yl)-1,3-dioxoisoindol-5-yl]oxy]ethyl)piperazine-1-carbonyl]phenyl]methoxy)-2-[(1-methanesulfonylpyrrol-3-yl)formamido]-N-(4-phenyl-1,3-thiazol-2-yl)propanamide; formic acid]
13 | > 10 µM | C (‘C’ = Maximum degradation <50%) | > 10 µM | < 50% | CS(=O)(=O)n1ccc(C(=O)N[C@@H](CCOCCCC(=O)NCCOc2cccc(OCCNc3cccc4c3C(=O)N(C3CCC(=O)NC3=O)C4=O)c2)C(=O)Nc2nc(-c3ccccc3)cs2)c1 (stereo partly drawn) [Compound 270, (2S)-4-[3-([2-[3-(2-[[2-(2,6-dioxopiperidin-3-yl)-1,3-dioxoisoindol-4-yl]amino]ethoxy)phenoxy]ethyl]carbamoyl)propoxy]-2-[(1-methanesulfonylpyrrol-3-yl)formamido]-N-(4-phenyl-1,3-thiazol-2-yl)butanamide]

Row | Structure (SMILES) | DC50 [1] | BRM HiBit Degradation Maximum measured [1] | DC50 [2] | Dmax [2]
14 | Cc1ncsc1-c1ccc(CNC(=O)[C@@H]2C[C@@H](O)CN2C(=O)[C@@H](NC(=O)CCCCCCCCCNC(=O)CN(C)c2cc(-c3cccc(-c4csc(NC(=O)CNC(=O)c5ccn(S(C)(=O)=O)c5)n4)c3)ccn2)C(C)(C)C)cc1 [Compound 47] | < 0.1 µM | B (‘B’ = Maximum degradation ≥50% and ≤75%) | < 0.1 µM | 50 to 75%
15 | CS(=O)(=O)n1ccc(C(=O)NCC(=O)Nc2nc(-c3cccc(-c4cccc(CNC(=O)CCOCCOCCOc5ccc6c(c5)C(=O)N(C5CCC(=O)NC5=O)C6=O)c4)c3)cs2)c1 (stereo not drawn) [Compound 55, N-[2-[[4-[3-[3-[[3-[2-[2-[2-(2,6-dioxo-3-piperidyl)-1,3-dioxo-isoindolin-5-yl]oxyethoxy]ethoxy]propanoylamino]-methyl]phenyl]phenyl]thiazol-2-yl]amino]-2-oxo-ethyl]-1-methylsulfonyl-pyrrole-3-carboxamide] | 0.1 to 1 µM | B (‘B’ = Maximum degradation ≥50% and ≤75%) | 0.1 to 1 µM | 50 to 75%

From US12662479B2 (Foghorn Therapeutics Inc., priority 2020, dated 2026)
